Laboratory results published in patent US9018383B2, “Acylamino-substituted cyclic carboxylic acid derivatives and their use as pharmaceuticals” (Sanofi, priority 2009, dated 2015).

Biological target: human Edg-2 receptor (Homo sapiens, UniProt Q92633)
Assay: Determination of Edg-2 receptor inhibition by FLIPR measurements (LPA-mediated calcium liberation)
Type: cell-based
Settings: CHO cells overexpressing human Edg-2 receptor, LPA 100 nM, fluo-4 calcium fluorescence; read-out: Inhibitory concentrations IC50 for inhibition of the Edg-2 receptor
Procedure, shortened: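 CHO cells stably overexpressing human Edg-2, loaded with fluo-4 AM, were pre-incubated ~5 min with compound (≤0.3% DMSO), then stimulated with 100 nM LPA 18:1 in HBSS/HEPES/probenecid, pH 7.5. Peak calcium fluorescence over ~3 min, baseline-corrected, versus DMSO gave % inhibition; IC50 from triplicates.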

Sequence of human Edg-2 receptor (Q92633 whole entry): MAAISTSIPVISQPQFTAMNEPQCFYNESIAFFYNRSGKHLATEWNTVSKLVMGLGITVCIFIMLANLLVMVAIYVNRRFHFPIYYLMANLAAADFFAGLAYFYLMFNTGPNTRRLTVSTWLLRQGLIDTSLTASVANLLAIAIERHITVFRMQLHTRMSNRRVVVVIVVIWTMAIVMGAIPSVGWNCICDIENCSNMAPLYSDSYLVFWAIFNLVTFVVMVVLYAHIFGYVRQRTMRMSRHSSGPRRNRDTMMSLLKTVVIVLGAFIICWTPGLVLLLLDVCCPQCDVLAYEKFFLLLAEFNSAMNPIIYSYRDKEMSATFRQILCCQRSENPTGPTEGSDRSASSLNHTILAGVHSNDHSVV

Row | Compound | IC50 [nM]
1 | COc1ncc(C(=O)N[C@]2(C(=O)O)CC[C@H](C)CC2)cc1-c1cc(F)cc(F)c1 [Example 410] | < 100
2 | CC[C@H]1CC[C@](NC(=O)c2cnc(OC)c(-c3ccc(OC)c(F)c3)c2)(C(=O)O)CC1 [Example 411] | < 100
3 | CC[C@H]1CC[C@@](NC(=O)c2cnc(OC)c(-c3ccc(OC)c(F)c3)c2)(C(=O)O)CC1 [Example 412] | < 100
4 | CC[C@H]1CC[C@](NC(=O)c2cnc(OCCO)c(-c3ccc(F)c(F)c3)c2)(C(=O)O)CC1 [Example 414] | < 100
5 | CC[C@H]1CC[C@](NC(=O)c2cnc(OCCO)c(-c3cc(F)cc(F)c3)c2)(C(=O)O)CC1 [Example 415] | < 100
6 | CC[C@H]1CC[C@](NC(=O)c2cnc(OCCO)c(-c3ccc(OC)c(Cl)c3)c2)(C(=O)O)CC1 [Example 417] | < 100
7 | CC[C@H]1CC[C@@](NC(=O)c2ccc(OCCO)c(OCCc3cccc(Cl)c3)c2)(C(=O)O)CC1 [Example 418, trans-1-[3-[2-(3-Chloro-phenyl)-ethoxy]-4-(2-hydroxy-ethoxy)-benzoylamino]-4-ethyl-cyclohexanecarboxylic acid] | < 100
8 | C[C@H]1CC[C@@](NC(=O)c2ccc(OCCO)c(OCCc3ccccc3)c2)(C(=O)O)CC1 [Example 420, trans-1-[4-(2-Hydroxy-ethoxy)-3-phenethyloxy-benzoylamino]-4-methyl-cyclohexanecarboxylic acid] | 100 to 1000
9 | C[C@H]1CC[C@](NC(=O)c2ccc(OCCO)c(OCCc3ccccc3)c2)(C(=O)O)CC1 [Example 421, cis-1-[4-(2-Hydroxy-ethoxy)-3-phenethyloxy-benzoylamino]-4-methyl-cyclohexanecarboxylic acid] | 100 to 1000
10 | O=C(NC1(C(=O)O)CCCCCC1)c1ccc(OCCO)c(OCCc2ccccc2)c1 [Example 422, 1-[4-(2-Hydroxy-ethoxy)-3-phenethyloxy-benzoylamino]cycloheptanecarboxylic acid] | 100 to 1000
11 | CC[C@H]1CC[C@](NC(=O)c2cnc(OC)c(OCCc3cccc(CCO)c3)c2)(C(=O)O)CC1 [Example 423, cis-4-Ethyl-1-[(5-{2-[3-(2-hydroxy-ethyl)-phenyl]-ethoxy}-6-methoxy-pyridine-3-carbonyl)-amino]-cyclohexanecarboxylic acid] | < 100
12 | CC[C@H]1CC[C@@](NC(=O)c2cnc(OC)c(OCCc3cccc(CCO)c3)c2)(C(=O)O)CC1 [Example 424, trans-4-Ethyl-1-[(5-{2-[3-(2-hydroxy-ethyl)-phenyl]-ethoxy}-6-methoxy-pyridine-3-carbonyl)-amino]-cyclohexanecarboxylic acid] | < 100
13 | CCc1ncc(C(=O)N[C@]2(C(=O)O)CC[C@H](C)CC2)cc1OCCc1cccc(Cl)c1 [Example 435, cis-1-({5-[2-(3-Chloro-phenyl)-ethoxy]-6-ethyl-pyridine-3-carbonyl}-amino)-4-methyl-cyclohexanecarboxylic acid] | 100 to 1000
14 | CCc1ncc(C(=O)N[C@]2(C(=O)O)CC[C@@H](C)CC2)cc1OCCc1cccc(Cl)c1 [Example 436, trans-1-({5-[2-(3-Chloro-phenyl)-ethoxy]-6-ethyl-pyridine-3-carbonyl}-amino)-4-methyl-cyclohexanecarboxylic acid] | 100 to 1000
15 | CCc1ncc(C(=O)N[C@]2(C(=O)O)CC[C@H](CC)CC2)cc1OCCc1cccc(Cl)c1 [Example 437, cis-1-({5-[2-(3-Chloro-phenyl)-ethoxy]-6-ethyl-pyridine-3-carbonyl}-amino)-4-ethyl-cyclohexanecarboxylic acid] | < 100
16 | CCc1ncc(C(=O)N[C@]2(C(=O)O)CC[C@@H](CC)CC2)cc1OCCc1cccc(Cl)c1 [Example 438, trans-1-({5-[2-(3-Chloro-phenyl)-ethoxy]-6-ethyl-pyridine-3-carbonyl}-amino)-4-ethyl-cyclohexanecarboxylic acid] | < 100
17 | CC[C@H]1CC[C@@](NC(=O)c2cc(OCCc3cccc(Cl)c3)c(C(C)=O)s2)(C(=O)O)CC1 [Example 439, trans-1-({5-Acetyl-4-[2-(3-chloro-phenyl)-ethoxy]-thiophene-2-carbonyl}-amino)-4-ethyl-cyclohexanecarboxylic acid] | 100 to 1000
18 | CCc1sc(C(=O)N[C@]2(C(=O)O)CC[C@@H](CC)CC2)cc1OCCc1cccc(Cl)c1 [Example 440, trans-1-({4-[2-(3-Chloro-phenyl)-ethoxy]-5-ethyl-thiophene-2-carbonyl}-amino)-4-ethyl-cyclohexanecarboxylic acid] | 100 to 1000
19 | CC[C@H]1CC[C@](C(=O)O)(N(C)C(=O)c2ccc(OC)c(OCCc3cccc(C)c3)c2)CC1 [Example 441, trans-4-Ethyl-1-{[4-methoxy-3-(2-m-tolyl-ethoxy)-benzoyl]-methyl-amino}-cyclohexanecarboxylic acid] | 1000 to 30000
20 | Cc1cccc(CCOc2ccc(C(=O)N[C@]3(C(=O)O)CC[C@@H](C)CC3)cc2C(O)C(F)(F)F)c1 (stereo partly drawn) [Example 442, (R,S)-trans-4-Methyl-1-[4-(2-m-tolyl-ethoxy)-3-(2,2,2-trifluoro-1-hydroxy-ethyl)-benzoylamino]-cyclohexanecarboxylic acid] | < 100
21 | COc1ccc(-c2cc(C(=O)N[C@]3(C(=O)O)CC[C@@H](C)CC3)ccc2OC2CC(F)(F)C2)cc1Cl [Example 443, Trans-1-{[3′-Chloro-6-(3,3-difluoro-cyclobutoxy)-4′-methoxy-biphenyl-3-carbonyl]-amino}-4-methyl-cyclohexanecarboxylic acid] | 100 to 1000
22 | COc1cc(F)c(-c2cc(C(=O)N[C@]3(C(=O)O)CC[C@@H](C)CC3)ccc2C(F)(F)F)c(F)c1 [Example 444, 1-[(2′,6′-Difluoro-4′-methoxy-6-trifluoromethyl-biphenyl-3-carbonyl)-amino]-4-methyl-cyclohexanecarboxylic acid] | 100 to 1000
23 | COc1ccc(C(=O)N[C@]2(C(=O)O)CC[C@@H](C)CC2)cc1-c1c(F)cc(OC)c(Cl)c1F [Example 445, 1-[(3′-Chloro-2′,6′-difluoro-6,4′-dimethoxy-biphenyl-3-carbonyl)-amino]-4-methyl-cyclohexanecarboxylic acid] | < 100

More lines, now with the values ahead:

Row | IC50 [nM] | Compound
24 | < 100 | CC[C@H]1CC[C@](NC(=O)c2cnc(OCCO)c(-c3cccc(C(F)(F)F)c3)c2)(C(=O)O)CC1 [Example 413, 4-Ethyl-1-{[6-(2-hydroxy-ethoxy)-5-(3-trifluoromethyl-phenyl)-pyridine-3-carbonyl]-amino}-cyclohexanecarboxylic acid]
25 | < 100 | CC[C@H]1CC[C@](NC(=O)c2cnc(OCCO)c(-c3cccc(OC(F)(F)F)c3)c2)(C(=O)O)CC1 [Example 416]
26 | < 100 | CC[C@H]1CC[C@](NC(=O)c2ccc(OCCO)c(OCCc3cccc(Cl)c3)c2)(C(=O)O)CC1 [Example 419, cis-1-[3-[2-(3-Chloro-phenyl)-ethoxy]-4-(2-hydroxy-ethoxy)-benzoylamino]-4-ethyl-cyclohexanecarboxylic acid]
27 | 100 to 1000 | CC[C@H]1CC[C@](NC(=O)c2ccc(OC)c(-c3ccc(OC)c(F)c3)c2)(C(=O)O)CC1 [Example 425, cis-4-Ethyl-1-[(3′-fluoro-6,4′-dimethoxy-biphenyl-3-carbonyl)-amino]-cyclohexanecarboxylic acid]
28 | 100 to 1000 | CC[C@H]1CC[C@](NC(=O)c2cnc(O)c(-c3cccc(C(F)(F)F)c3)c2)(C(=O)O)CC1 [Example 426, cis-4-Ethyl-1-{[6-hydroxy-5-(3-trifluoromethyl-phenyl)-pyridine-3-carbonyl]-amino}-cyclohexanecarboxylic acid]
29 | 100 to 1000 | CC[C@@H]1C[C@]1(NC(=O)c1ccc(OC)c(-c2cccc(C(F)(F)F)c2)c1)C(=O)O [Example 427, (1R,2R)-2-Ethyl-1-[(6-methoxy-3′-trifluoromethyl-biphenyl-3-carbonyl)-amino]-cyclopropanecarboxylic acid]
30 | < 100 | CC[C@H]1CC[C@](NC(=O)c2ccc(C=O)c(-c3cccc(C(F)(F)F)c3)c2)(C(=O)O)CC1 [Example 428, cis-4-Ethyl-1-[(6-formyl-3′-trifluoromethyl-biphenyl-3-carbonyl)-amino]-cyclohexanecarboxylic acid]
31 | 100 to 1000 | CC[C@H]1CC[C@@](NC(=O)c2ccc(C=O)c(-c3cccc(C(F)(F)F)c3)c2)(C(=O)O)CC1 [Example 429, trans-4-Ethyl-1-[(6-formyl-3′-trifluoromethyl-biphenyl-3-carbonyl)-amino]-cyclohexanecarboxylic acid]
32 | 100 to 1000 | CC[C@H]1CC[C@](NC(=O)c2ccc(CO)c(-c3cccc(C(F)(F)F)c3)c2)(C(=O)O)CC1 [Example 430, cis-4-Ethyl-1-[(6-hydroxymethyl-3′-trifluoromethyl-biphenyl-3-carbonyl)-amino]-cyclohexanecarboxylic acid]
33 | 100 to 1000 | CC[C@H]1CC[C@@](NC(=O)c2ccc(CO)c(-c3cccc(C(F)(F)F)c3)c2)(C(=O)O)CC1 [Example 431, trans-4-Ethyl-1-[(6-hydroxymethyl-3′-trifluoromethyl-biphenyl-3-carbonyl)-amino]-cyclohexanecarboxylic acid]
34 | < 100 | CC[C@H]1CC[C@](NC(=O)c2ccc(CCCO)c(-c3cccc(C(F)(F)F)c3)c2)(C(=O)O)CC1 [Example 433, cis-4-Ethyl-1-{[6-(3-hydroxy-propyl)-3′-trifluoromethyl-biphenyl-3-carbonyl]-amino}-cyclohexanecarboxylic acid]
35 | 100 to 1000 | C[C@H]1CC[C@](NC(=O)c2ccc(CCCO)c(-c3cccc(C(F)(F)F)c3)c2)(C(=O)O)CC1 [Example 434, cis-1-{[6-(3-Hydroxy-propyl)-3′-trifluoromethyl-biphenyl-3-carbonyl]-amino}-4-methyl-cyclohexanecarboxylic acid]
